Usually viability stands for a read-out of living cells in per cent, often relative to untreated cells.

Molecules are shown by their SMILES.

A short description of the first data set: in vitro. As to conditions: human, hela cells, % viability.
As to `COc1cccc(CN2CCC3(C2)c2[nH]c4c(C)cccc4c2CCN3C(C)=O)c1` (stereo not shown) [CBK039662], the viability at 28.5 h, 10 µM worked out at 84.9%.
The same measure, in the same setting: with `CC(=O)N1CCc2c([nH]c3ccccc23)C12CCCN(CCC#N)C2` (stereo not shown) [CBK039665] the figure was 91.6%; with `CC(=O)N1CCc2c([nH]c3cc(F)ccc23)C12CCN(CCC#N)CC2` [CBK039692], 95.7%; with `CC(=O)N1CCc2c([nH]c3c(C)cccc23)C12CCCN(CCCC#N)C2` (stereo not shown) [CBK039705], 104%.
Still for that read-out and setting: with `CC(=O)N1CCc2c([nH]c3ccc(Br)cc23)C12CCN(CCCC#N)CC2` [CBK039724] the figure was 83.2%; with `Cc1cccc2c3c([nH]c12)C1(CCN(CCCC#N)CC1)NCC3` [CBK039818], 90.8%; with `Cc1cccc2c1CC(=O)NC21CCN(Cc2ccccc2)CC1` [CBK039819], 87%.
The same measure, in the same setting: with `COc1ccc2c(c1)CC(=O)NC21CCN(CCCCC(C)C)CC1` [CBK039839] the figure was 95.3%; with `Fc1ccc2c3c([nH]c2c1)C1(CCN(CCCOCc2ccccc2)CC1)NCC3` [CBK039858], 92.7%; with `COc1cc2c(cc1OC)C1(CCN(CCCC(F)(F)F)CC1)NC(=O)C2` [CBK039859], 97.9%.
In the case of `c1ccc(COc2ccc3[nH]c4c(c3c2)CCNC42CCN(Cc3ccccc3-c3ccccc3)C2)cc1` (stereo not shown) [CBK039909], the viability at 28.5 h, 10 µM was determined as 73.9%.
For the compound `Cc1cccc2c1CC(=O)NC21CCN(CC(=O)c2ccc(F)cc2)CC1` [CBK039946], the viability at 28.5 h, 10 µM was 96%.
Take `Cn1c2c(c3ccccc31)CCOC21CCN(Cc2ccc(OC(F)F)cc2)CC1` [CBK039975]: the viability at 28.5 h, 10 µM is 95.8%.
As for `O=C1Cc2cc3ccccc3cc2C2(CCN(CCC(F)=C(F)F)CC2)N1` [CBK040033], the viability at 28.5 h, 10 µM worked out at 94.6%.
The same measure, in the same setting: with `COc1cccc2c3c([nH]c12)C1(CCN(CCc2scnc2C)CC1)NCC3` [CBK040058] the figure was 89%; with `CC(c1nc2ccccc2[nH]1)N1CCC2(CC1)NCCc1c2[nH]c2ccccc12` (stereo not shown) [CBK040061], 90.3%.
For `FC(F)(F)c1ccc(CN2CCCC3(C2)NCCc2c3[nH]c3ccccc23)cc1` (stereo not shown) [CBK040095], the viability at 28.5 h, 10 µM turned out to be 94.2%.
Same read-out and setting: under `COc1ccc2[nH]c3c(c2c1)CCNC31CCN(CCC2CCCCC2)C1` (stereo not shown) [CBK040111T] stands 90.7%; under `COc1ccc2[nH]c3c(c2c1)CCOC31CCN(CCC(F)=C(F)F)CC1` [CBK040118], 103%; under `c1csc(CCN2CCC3(CC2)OCCc2c3[nH]c3ccccc23)c1` [CBK040156], 87.1%.
`Cc1ccc2c(c1)C1(CCN(C/C=C\c3ccccc3)CC1)NC(=O)C2` [CBK040216]: the viability at 28.5 h, 10 µM was found to be 94.1%.
Take `COCCOCCCN1CCC2(CC1)NC(=O)Cc1ccc(C)cc12` [CBK040222]: the viability at 28.5 h, 10 µM was found to be 109%.
As to `CC(C)(C)C(=O)CN1CCC2(CC1)OCCc1c2[nH]c2ccc(F)cc12` [CBK040237], the viability at 28.5 h, 10 µM was found to be 95.8%.
On the same count and under the same terms, under `COC(=O)c1cccc(CN2CCC3(CC2)OCCc2c3[nH]c3ccc(F)cc23)c1` [CBK040326] stands 100%; under `O=CN1CCc2c([nH]c3ccc(F)cc23)C12CCN(Cc1cccc(Oc3ccc(F)cc3)c1)CC2` [CBK040388], 96.4%.
Consider `Cc1ccc2[nH]c3c(c2c1)CCN(C=O)C31CCN(Cc2ccc(OC(F)F)cc2)CC1` [CBK040438], for which the viability at 28.5 h, 10 µM amounted to 101%.
On the same count and under the same terms, under `CN(C)C(C)(C)COc1ncccc1OCCO` [CBK042184] stands 112%; under `CN1CCC[C@H]1COc1ncccc1OCCO` [CBK042185], 92.6%.
`CN1CCN(c2ccc([N+](=O)[O-])c(NCc3ccccc3)c2)CC1` [CBK042199]: the viability at 28.5 h, 10 µM was 93.7%.
Consider `O=[N+]([O-])c1ccc(N2CCN(CCO)CC2)cc1NCc1ccc(Cl)cc1` [CBK042201], for which the viability at 28.5 h, 10 µM stood at 99.6%.
In the case of `O=C(CNS(=O)(=O)c1ccc(F)cc1)N1CCOCC1` [CBK042214], the viability at 28.5 h, 10 µM was 97.7%.
Regarding `O=C(CNS(=O)(=O)c1cc(F)c(Br)cc1F)N1CCOCC1` [CBK042216], the viability at 28.5 h, 10 µM was 107%.
For `O=C(CNS(=O)(=O)Cc1ccccc1[N+](=O)[O-])N1CCOCC1` [CBK042220], the viability at 28.5 h, 10 µM is 82.7%.
Take `O=C(CNS(=O)(=O)c1ccc(Oc2ccccc2)cc1)Nc1ccc(F)cc1` [CBK042229]: the viability at 28.5 h, 10 µM is 104%.
For the compound `Cc1ccc(S(=O)(=O)Nc2sccc2C(=O)O)cc1[N+](=O)[O-]` [CBK042258], the viability at 28.5 h, 10 µM turned out to be 102%.
On to `Cc1ccc(S(=O)(=O)Nc2sccc2C(=O)N2CCN(C)CC2)cc1` [CBK042264], for which the viability at 28.5 h, 10 µM was determined as 89.3%.
Regarding `CN1CCN(C(=O)c2ccsc2NS(=O)(=O)c2ccc(Oc3ccccc3)cc2)CC1` [CBK042277], the viability at 28.5 h, 10 µM was 87%.
Still for that read-out and setting: under `O=C(c1ccsc1NS(=O)(=O)c1cc(Cl)sc1Cl)N1CCOCC1` [CBK042288] stands 92.5%.
For `Cc1ccc(S(=O)(=O)Nc2sccc2C(=O)Nc2ccc(F)cc2)cc1` [CBK042302], the viability at 28.5 h, 10 µM amounted to 98.5%.
In the case of `O=C(Nc1ccc(F)cc1)c1ccsc1NS(=O)(=O)Cc1ccccc1[N+](=O)[O-]` [CBK042313], the viability at 28.5 h, 10 µM worked out at 91.7%.
For the compound `CCN(CC)C(=O)c1ccsc1NS(=O)(=O)c1cccc2cccnc12` [CBK042317], the viability at 28.5 h, 10 µM is 87.1%.
Turning to `CCN(CC)C(=O)c1ccsc1NS(=O)(=O)c1ccc(Br)cc1` [CBK042318], the viability at 28.5 h, 10 µM was 93.2%.
Turning to `CCCc1ccc(S(=O)(=O)Nc2ccccc2C(=O)O)cc1` [CBK042366], the viability at 28.5 h, 10 µM was determined as 72.4%.
On to `Cc1noc(C)c1S(=O)(=O)Nc1ccccc1C(=O)O` [CBK042371], for which the viability at 28.5 h, 10 µM came out at 89.8%.
Same read-out and setting: with `O=C(O)c1ccccc1NS(=O)(=O)Cc1ccccc1[N+](=O)[O-]` [CBK042373] the figure was 91.9%; with `Cc1ccc(S(=O)(=O)Nc2ccccc2C(=O)O)cc1[N+](=O)[O-]` [CBK042374], 84.5%.
In the case of `CSc1cccc(NC(=O)N2CCN(C(=O)C3CCCO3)CC2)c1` (stereo not shown) [CBK043283], the viability at 28.5 h, 10 µM was 100%.
Turning to `O=C(c1ccccc1NS(=O)(=O)c1ccc(Br)cc1)N1CCOCC1` [CBK043340], the viability at 28.5 h, 10 µM came to 100%.
With `COc1cc(NC(=O)NCCc2cccs2)cc(OC)c1OC` [CBK043347], the viability at 28.5 h, 10 µM came to 94.6%.
As to `O=C(c1ccccc1NS(=O)(=O)c1ccc(C(F)(F)F)cc1[N+](=O)[O-])N1CCOCC1` [CBK043353], the viability at 28.5 h, 10 µM worked out at 84.4%.
The same measure, in the same setting: under `CCC(C)(C)c1ccc(S(=O)(=O)N(C)CCC#N)cc1` [CBK043395] stands 118%.
Still for that read-out and setting: with `COC(=O)NC(=O)N1CCN(c2c(Cl)cncc2Cl)CC1` [CBK043398] the figure was 108%; with `CCOC(=O)CN(Cc1ccccc1)S(=O)(=O)c1ccc(C(C)C)cc1` [CBK043404], 103%; with `CCCN(CCC#N)S(=O)(=O)c1ccc(C(C)C)cc1` [CBK043453], 94.4%.
The same measure, in the same setting: under `Cc1cc(S(=O)(=O)N(CCC#N)Cc2ccccc2)c(C)cc1Cl` [CBK043461] stands 90.8%.
On to `CC(C)c1ccc(S(=O)(=O)NCc2c(F)ccc(Cl)c2F)cc1` [CBK043484], for which the viability at 28.5 h, 10 µM was determined as 88.4%.
As for `CNC(=O)c1ccc(NS(=O)(=O)c2ccc(OC(F)(F)F)cc2)cc1` [CBK043495], the viability at 28.5 h, 10 µM amounted to 96.7%.
With `O=S(=O)(Nc1ccccc1O)c1ccc(OC(F)(F)F)cc1` [CBK043512], the viability at 28.5 h, 10 µM is 80.2%.
On the same count and under the same terms, with `CCC(O)CNS(=O)(=O)c1ccc(OC(F)(F)F)cc1` (stereo not shown) [CBK043557] the figure was 97.9%; with `Cc1ccc(NS(=O)(=O)c2ccc(OC(F)(F)F)cc2)nc1` [CBK043577], 95.8%.
`O=S(=O)(c1ccc(Br)s1)N1CCC(Cc2ccccc2)CC1` [CBK043580]: the viability at 28.5 h, 10 µM stood at 89.7%.
On the same count and under the same terms, under `CC(C)c1ccc(S(=O)(=O)N(C)Cc2cccnc2)cc1` [CBK043582] stands 108%; under `CC(NS(=O)(=O)c1cccs1)c1ccccc1` (stereo not shown) [CBK043601], 114%; under `CC(=O)c1cccc(NS(=O)(=O)c2ccc(OC(F)(F)F)cc2)c1` [CBK043606], 88.5%.
On the same count and under the same terms, under `Cc1cc(S(=O)(=O)N(CCC#N)c2ccccc2)c(C)cc1Cl` [CBK043618] stands 85.7%.
The same measure, in the same setting: with `O=S(=O)(CCc1ccccn1)N1CCC(Cc2ccccc2)CC1` [CBK043632] the figure was 107%; with `Fc1ccc2c(ccn2CCCN2CCN(c3ccncc3)CC2)c1` [CBK043645G], 89.4%; with `CCOC(=O)CN1CCN(C(=O)Nc2ccccc2OC(F)(F)F)CC1` [CBK043656], 97%.
With `CCCNC(=O)NCCc1cccs1` [CBK043675], the viability at 28.5 h, 10 µM is 102%.
Still for that read-out and setting: with `N#CC(NS(=O)(=O)c1ccc(OC(F)(F)F)cc1)c1ccccc1` (stereo not shown) [CBK043714] the figure was 97.6%; with `CC(=O)NCCNS(=O)(=O)c1ccc(C(C)C)cc1` [CBK043726], 92.5%.
For `CCC(C)(C)c1ccc(S(=O)(=O)Nc2n[nH]cc2Br)cc1` [CBK043734], the viability at 28.5 h, 10 µM was determined as 85%.
Same read-out and setting: with `N#Cc1ccc(NC(=O)NCCc2cccs2)cc1` [CBK043736] the figure was 115%; with `O=S(=O)(NCc1ccc(C(F)(F)F)cc1)c1cccs1` [CBK043744], 94.5%; with `CCOC(=O)C1CCN(S(=O)(=O)c2ccc(NC(C)=O)c(Cl)c2)CC1` [CBK043748], 93.5%.
In the case of `O=C(NCCc1cccs1)Nc1ccc(Cl)c(C(F)(F)F)c1` [CBK043775], the viability at 28.5 h, 10 µM is 97.6%.

The same data set, now with this note: human, hela cells, % viability, bulk resorufin, single well.
Turning to `O=C(Nc1ccccc1C(F)(F)F)N1CCC2(CC1)OCCO2` [CBK043655], the viability at 28.5 h, 10 µM came out at 94.1%.
Take `COC(=O)c1cccc(NC(=O)N2CCC3(CC2)OCCO3)c1` [CBK043713]: the viability at 28.5 h, 10 µM came out at 91.1%.
With `CC(C)(C)c1ccccc1NC(=O)N1CCC2(CC1)OCCO2` [CBK043720], the viability at 28.5 h, 10 µM was found to be 91.3%.

(Values after PMC12040169 (PLOS Biology, 2025).)
